Source: patent US9849145B2, “Pharmaceutical composition containing honeysuckle extract and antibiotics, pharmaceutical kit, and use of honeysuckle extract for preparation of drug” (priority 2011, dated 2017)
Values joined by “and” are separate entries in the source; they are usually repeats but may differ in a detail not shown here. Equal values may be shown once.

Assays:
Escherichia coli = tested on: Escherichia coli; design: key: Resistant; Sensitive; Intermediate degree (moderate resistance); conditions: clinical isolate, specimen 32042, urine; cited from earlier work
Klebsiella pneumoniae [1] = tested on: Klebsiella pneumoniae; design: key: Resistant; Sensitive; Intermediate degree (moderate resistance); conditions: clinical isolate, specimen 31853, urine; cited from earlier work
[2] = tested on: AMP-resistant Klebsiella pneumoniae; experiment: AMP-resistant bacterium infection model in mice (mortality, intraperitoneal colony count); assay type: in vivo, KM mice; conditions: for protection / control of infection by AMP alone (in words): AMP-resistant bacterium infection model-AMP intervention control group
From the text: This example studies the antimicrobial effects in vivo of the honeysuckle extracts N1 to N4 which are respectively combined with antibiotics, and the antimicrobial effects were compared with that of the honeysuckle water decoction W combined with the antibiotic.
The experimental strain is Klebsiella pneumoniae which was isolated from the sputum specimen of the patient in the ward of the Fourth People's Hospital of Jinan in 2010, and detection of the drug resistant spectrum is shown in Table 6 below.
(§1) KM mice were purchased from the Experimental Animal Center of Shandong University, weighing 16-18 g, with half male and half female and animal license number of SCXK (Lu) 20090001.
(§2) There were 5 control groups with 10 mice in each group: normal control group, AMP-sensitive bacterium quality control model control group (AMPS) and the treatment group thereof, AMP-resistant bacterium model control group (AMPR) and the treatment group thereof;
There were 15 experimental groups with 10 mice in each group: N1 to N4 and W were respectively combined with AMP high-dose group, AMP medium-dose group and AMP low-dose group.
(§3) After being grouped, the animals were injected intraperitoneally with 2.5×10^7 (Klebsiella pneumoniae)*100 μL^−1 per animal, then immediately treated by administration, and the route of administration alternated between tail intravenous injection and intraperitoneal injection (the sterile normal saline was used as the solvent for drugs except W, since continuous tail intravenous injection causes damage to tail veins, therefore the tail intravenous injection and intraperitoneal injection were performed alternatively), the animal was injected once a day for 5 days continuously. The efficacy of each group was evaluated according to the animal mortality and intraperitoneal bacterial count.
(§4) Intraperitoneal bacterium counting of dead animals: the animals were injected intraperitoneally with 1 ml sterile normal saline immediately after they died, and the abdomens of the animals were kneaded gently for 1 min, the ascites was drawn and coated on the plate after gradient dilution, and cultured at 37° C. overnight, then the colonies were counted;
(§5) Intraperitoneal bacterium counting of surviving animals: the mice were administrated continuously for 5 days and sacrificed through dislocation 2 h after the last administration, then the mice were injected intraperitoneally with 1 ml sterile normal saline, and the abdomens of the mice were kneaded gently for 1 min, the ascites was drawn and coated on the plate after gradient dilution, and cultured at 37° C. overnight, then the colonies were counted, colony count results of the control groups are shown in table 9 below, and colony count results of the experimental groups are shown in table 10 below.

AMP-sensitive strain = experiment: AMP-sensitive bacterium infection model in mice (quality control); assay type: in vivo, KM mice; conditions: for protection / control of infection by AMP alone (in words): AMP-sensitive bacterium infection model-AMP intervention control group
From the text: The control strain is clinically isolated AMP-sensitive strain, which was isolated from the sputum specimen of the patient in the ward of the Fourth People's Hospital of Jinan in 2010, and preserved until today.
as §1, §2, §3, §4, §5

Klebsiella pneumoniae [3] = tested on: Klebsiella pneumoniae; design: key: Resistant; Sensitive; Intermediate degree (moderate resistance); conditions: clinical isolate, specimen 31494, sputum; cited from earlier work
Klebsiella pneumoniae [4] = experiment: Bacterial inhibition test of antibiotics, Klebsiella pneumoniae; assay type: cell-based; conditions: 2-fold dilutions from 1 mg/mL to 1:2048; 37° C. 20 h; 630 nm
Description: In this example, bacterial inhibition effects of antibiotics on the four multiple resistant bacteria in Tables 1-4 were measured.
The activated bacterium suspension was diluted to a concentration equivalent to 0.5 McFarland turbidity standard, and diluted with the culture medium of MH broth in a proportion of 1:1000, and then added into each well in amount of 100 μL per well.
The antibiotics resisted by the above four multiple resistant bacteria were diluted to 1:2048 (2^−11) from 1 mg/mL (initial concentration) by 2-fold dilution, and then the original solution and different concentrations of diluted antibiotics were added respectively into the well containing the bacterium suspension, with each well added with 100 μL, and the minimum inhibitory concentration (MIC) of each antibiotic was recorded finally.
Meanwhile, a bacterium solution control (that is, bacterium solution plus an equal volume of culture medium) and a blank culture medium control were set.
Cultivation was performed at 37° C. for 20 h, and detection was performed at 630 nm by the microplate reader, and the bacterial inhibition rate is calculated according to formula (2), and the data obtained is put into formula (1) to calculate specific distance, and the specific distance is added to the virus dilution index with pathologic rate less than 50% to obtain half inhibitory concentration (Reed-Muench method). […]

Pseudomona aeruginosa = tested on: Pseudomona aeruginosa; design: key: Resistant; Sensitive; Intermediate degree (moderate resistance); conditions: clinical isolate, specimen 12; cited from earlier work
[5] = AMP intervention control group: AMP 16.80 mg per mouse alone, n = 10
[6] = AMP-sensitive bacterium model, AMP 16.80 mg per mouse alone, n = 10

## CC1(C)S[C@@H]2[C@H](NC(=O)[C@H](N)c3ccccc3)C(=O)N2[C@H]1C(=O)O [AMP, ampicillin]
Escherichia coli
  resistance of Escherichia coli to the antibiotic: R
Klebsiella pneumoniae [1]
  resistance of Klebsiella pneumoniae to the antibiotic: R
[2]; [5]
  Mortality (%): 100%
  Number of deaths 1st day: 0
  Number of deaths 2nd day: 7
  Number of deaths 3rd day: 2
  Number of deaths 4th day: 1
  Number of deaths 5th day: 0
  Number of deaths Total: 10
[2]
  protection / control of infection by AMP alone (in words): cannot be protected (all of animals died)
[2]; listed as ampicillin
  protection / control of infection by AMP alone (in words): cannot be controlled by ampicillin
[2]; AMPR model, AMP 16.80 mg per mouse alone
  Bacterium isolation positive rate (%): 100%
[2]; AMPR model, AMP 16.80 mg per mouse alone, one value per mouse Nos. 1-10, unit not given in Table 9 (Table 10 note: CFU/mL)
  Intraperitoneal colony count of animals: 3.557 × 10^10 and 3.478 × 10^10 and 3.578 × 10^10 and 3.487 × 10^10 and 3.550 × 10^10 and 3.373 × 10^10 and 3.360 × 10^10 and 6.617 × 10^9 and 4.800 × 10^9 and 5.467 × 10^9
AMP-sensitive strain
  protection / control of infection by AMP alone (in words): protected effectively
AMP-sensitive strain; listed as ampicillin
  protection / control of infection by AMP alone (in words): sensitive to ampicillin
AMP-sensitive strain; [6]
  Mortality (%): 0%
  Number of deaths 1st day: 0
  Number of deaths 2nd day: 0
  Number of deaths 3rd day: 0
  Number of deaths 4th day: 0
  Number of deaths 5th day: 0
  Number of deaths Total: 0
AMP-sensitive strain; AMPS model, AMP 16.80 mg per mouse alone
  Bacterium isolation positive rate (%): 10%
AMP-sensitive strain; AMPS model, AMP 16.80 mg per mouse alone, one value per mouse Nos. 1-10, unit not given in Table 9 (Table 10 note: CFU/mL)
  Intraperitoneal colony count of animals: 1.054 × 10^1 and 0 (9×)
Klebsiella pneumoniae [3]
  drug resistant spectrum of the experimental strain of Klebsiella pneumoniae: R
Klebsiella pneumoniae [4]
  bacterial inhibition effect of the antibiotic: inhibitory effect on Klebsiella pneumoniae in the first two dilutions (1 mg/mL, 0.5 mg/mL)
Pseudomona aeruginosa
  resistance of Pseudomona aeruginosa to the antibiotic: R
